Measured values reported in the supplement of paper PMC10307832.

Key:
Experiment in all cases: relative viability (nuclei count vs DMSO), 5 days (fraction); higher = more cells survive
[1] = compound: CCn1c(-c2nonc2N)nc2c(C#CC(C)(C)O)ncc(OC[C@H]3CCCNC3)c21 + Cc1cc(Nc2cc(N3CCN(C)CC3)nc(Sc3ccc(NC(=O)C4CC4)cc3)n2)n[nH]1 [Tozasertib] (partner 0.1 µM)
In short: (§1)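 Nuclei were stained with Hoechst during a one-step fixation (final 0.05% Triton X-100, 1% formaldehyde, 1 ug/ml Hoechst) carried out 5 days after dosing, then counted on 4× images. The cells, lung cancer lines in 1536-well plates, had been dosed by pin tool the day after seeding with one drug alone or a fixed anchor-drug dose plus five library-drug doses (not always all listed) in √10 steps. Relative viability is the nuclei count in treated wells divided by that in vehicle wells, and each value is the median of duplicate plates.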

BAM7 + Pemetrexed = compound: CCOC1=CC=CC=C1N=NC2=C(NN(C2=O)C3=NC(=CS3)C4=CC=CC=C4)C [BAM7] + Nc1nc2[nH]cc(CCc3ccc(C(=O)N[C@@H](CCC(=O)O)C(=O)O)cc3)c2c(=O)[nH]1 [Pemetrexed] (partner 0.2 µM)
In short: as §1

[2] = compound: CCn1c(-c2nonc2N)nc2c(C#CC(C)(C)O)ncc(OC[C@H]3CCCNC3)c21 + Nc1nc2[nH]cc(CCc3ccc(C(=O)N[C@@H](CCC(=O)O)C(=O)O)cc3)c2c(=O)[nH]1 [Pemetrexed] (partner 0.2 µM)
In short: as §1

[3] = compound: CCn1c(-c2nonc2N)nc2c(C#CC(C)(C)O)ncc(OC[C@H]3CCCNC3)c21 + COc1cc2c(Oc3ccc(NC(=O)C4(C(=O)Nc5ccc(F)cc5)CC4)cc3F)ccnc2cc1OCCCN1CCOCC1 [Foretinib] (partner 0.25 µM)
In short: as §1

Cell Line	relative viability ([1]; first compound 0.01 µM)	relative viability ([1]; first compound 0.03162 µM)	relative viability ([1]; first compound 0.1 µM)	relative viability ([1]; first compound 0.3162 µM)	relative viability ([1]; first compound 1 µM)	relative viability (BAM7 + Pemetrexed; first compound 0.5 µM)	relative viability (BAM7 + Pemetrexed; first compound 5 µM)	relative viability (BAM7 + Pemetrexed; first compound 15.81 µM)	relative viability (BAM7 + Pemetrexed; first compound 50 µM)	relative viability ([2]; first compound 0.01 µM)	relative viability ([2]; first compound 0.03162 µM)	relative viability ([2]; first compound 0.1 µM)	relative viability ([2]; first compound 0.3162 µM)	relative viability ([2]; first compound 1 µM)	relative viability ([3]; first compound 0.01 µM)	relative viability ([3]; first compound 0.03162 µM)	relative viability ([3]; first compound 0.1 µM)	relative viability ([3]; first compound 0.3162 µM)	relative viability ([3]; first compound 1 µM)
NCI-H522	0.56	0.55	0.52	0.517	0.564	1.13	1.09	1.25	0.998	0.989	1.02	0.915	0.95	1.17					
HCC-15	0.393	0.439	0.338	0.427	0.384	0.225	0.216	0.22	0.227	0.218	0.225	0.218	0.211	0.209	0.995	1.04	1.05	0.903	0.92
A-427	0.243	0.227	0.251	0.24	0.188	1.02	0.935	0.93	1.04	0.925	0.999	0.876	0.91	1.08	0.978	1.23	1.1	0.981	0.991
NCI-H2228	0.222	0.278	0.229	0.246	0.252	0.355	0.341	0.316	0.351	0.336	0.302	0.328	0.339	0.318	0.762	0.985	0.767	0.555	0.872
NCI-H1734	0.262	0.258	0.285	0.26	0.268	0.437	0.415	0.382	0.411	0.389	0.419	0.385	0.391	0.431	0.765	0.841	0.801	0.748	0.799
PC-14	0.587	0.63	0.687	0.533	0.716	0.128	0.129	0.142	0.165	0.127	0.126	0.14	0.136	0.147	0.933	1.02	1.02	0.894	1
NCI-H1915	0.439	0.424	0.422	0.413	0.464	0.425	0.505	0.524	0.46	0.452	0.514	0.487	0.444	0.49	1.11	1.1	1.08	1.01	1
NCI-H1666	0.625	0.691	0.644	0.578	0.567	0.919	0.846	0.82	0.82	0.865	0.857	0.782	0.885	0.907	0.946	0.957	0.982	1.02	1.02
HCC-366	0.135	0.12	0.194	0.111	0.129	0.107	0.117	0.125	0.115	0.183	0.179	0.195	0.172	0.182	0.931	0.99	0.975	0.907	0.965
SK-MES-1	0.858	0.835	0.894	0.854	0.856	0.919	0.906	0.814	0.866	0.971	0.945	0.947	0.909	0.983	0.908	0.876	1.02	0.819	0.828
SW 1573	0.175	0.179	0.178	0.201	0.14	0.843	0.822	0.801	0.823	0.772	0.773	0.765	0.646	0.736	0.89	0.799	0.812	0.728	0.763
NCI-H661	0.362	0.343	0.354	0.364	0.382	0.949	0.973	0.921	0.917	0.903	0.937	0.938	0.713	0.926	1.01	1.06	1.06	0.935	1.06
PC-3 [JPC-3]	0.847	0.943	0.833	0.827	0.859	1.17	1.13	1.05	1.08	1.01		1.03	0.946	1.17	0.982	1.04	1.12	0.902	1.08
NCI-H1623	0.433	0.468	0.446	0.404	0.492										0.855	0.849	0.793	0.882	0.676
Calu-6															0.85	0.86	0.866	0.824	0.942
LC-2-ad	0.457	0.442	0.474	0.44	0.451	0.297	0.277	0.293	0.29	0.267	0.283	0.261	0.262	0.272	0.94	0.906	0.923	0.909	1.01
CAL-12T	0.351	0.354	0.303	0.309	0.298	1.31	1.27	0.987	1.31	1.12	1.2	1.13	0.994	1.2	1.15	1.05	1.05	1.05	1.07
RERF-LC-KJ	0.441	0.516	0.403	0.477	0.416	0.518	0.53	0.464	0.529	0.486	0.442	0.432	0.478	0.488	0.858	0.821	0.921	0.767	0.973
